Results from patent US6855730B2, “3-methylidenyl-2-indolinone modulators of protein kinase” (Sugen, Inc., priority 1998, dated 2005).

Tests used:
flkGST = molecular target: T1, flkGST (Homo sapiens, UniProt P35968); assay: bio flkGST assay; type: biochemical
T1 construct: GST

PDGFR-β = molecular target: T2, PDGFR-β (Homo sapiens, UniProt P09619); assay: Biochemical PDGFR assay (ELISA, PDGFR-β expressing NIH 3T3 cell lysate); details: read-out: bio PDGF IC50
T2 construct: host or cells: NIH 3T3
Description: This assay measures the in vitro kinase activity of PDGFR using ELISA.
Unless otherwise noted, the preparation of working solution-of the following reagents is the same as that for the Biochemical EGFR assay, above. • 1. […] 28D4C10 monoclonal anti-PDGFR antibody (Biochemistry Lab, SUGEN, Inc.). • 3. PBS (Dulbecco's Phosphate-Buffered Saline, Gibco Catalog No. 450-1300EB) • 4. TBST Buffer. • 5. Blocking Buffer. • 6. PDGFR-β expressing NIH 3T3 cell lysate (Screening Lab, SUGEN, Inc.). • 7. TBS Buffer. • 8. TBS+10% DMSO. • 9. […] MnCl2. • 11. Kinase buffer phosphorylation mix.
• 12. NUNC 96-well V bottom polypropylene plates (Applied Scientific Cat. No. AS-72092). • 13. Ethylenediaminetetraacetic acid (EDTA). • 14. Rabbit polyclonal anti-phosphotyrosine serum (Biochemistry Lab, SUGEN, Inc.). • 15. Goat anti-rabbit IgG peroxidase conjugate (Biosource Cat. No. ALI0404). • 16. 2,2′-azino-bis(3-ethylbenzthiazoline-6-sulfonic acid) (ABTS, Sigma Cat. No. A-1888). • 17. Hydrogen peroxide 30% solution (Fisher Cat. No. H325). • 18. ABTS/H2O2. • 19. 0.2 M HCl.
Procedure • 1. Coat Corning 96 well ELISA plates with 0.5 μg 28D4C10 in 100 μl PBS per well, store overnight at 4° C. • 2. Remove unbound 28D4C10 from wells by inverting plate to remove liquid. Wash 1× with dH2O. Pat the plate on a paper towel to remove excess liquid. • 3. Add 150 μl of Blocking Buffer to each well. Incubate for 30 min. at room temperature with shaking. • 4. Wash plate 3× with deionized water, then once with TBST. Pat plate on a paper towel to remove excess liquid and bubbles. • 5. Dilute lysate in HNTG (10 μg lysate/100 μl HNTG) • 6. Add 100 μl of diluted lysate to each well. Shake at room temperature for 60 min. • 7. Wash plates as described in 4, above. • 8. Add 80 μl working kinase buffer mix to ELISA plate containing captured PDGFR. • 9. Dilute test compound 1:10 in TBS in 96-well polypropylene plates (i.e., 10 μl compound+90 μl TBS). • 10. Add 10 μl diluted test compound to ELISA plate. […] Incubate for 30 minutes while shaking at room temperature. • 12. Add 10 μl ATP directly to all wells except negative control well (final well volume should be approximately 100 μl with 20 μM ATP in each well.) Incubate 30 minutes while shaking. • 13. After 30 minutes, stop reaction by adding 10 μl of 200 mM EDTA (pH 8.0) to each well. • 14. Wash 4× with deionized water, twice with TBST. • 15. Add 100 μl anti-phosphotyrosine (1:3000 dilution in TBST) per well. Incubate 30-45 min. at room temperature, with shaking. • 16. Wash as described in 4, above. • 17. Add 100 μl Biosource Goat anti-rabbit IgG peroxidase conjugate (1:2000 dilution in TBST) to each well. Incubate 30 min. at room temperature, with shaking. • 18. Wash as described in 4, above. • 19. Add 100 μl of ABTS/H2O2 solution to each well. • 20. Incubate 10 to 30 minutes with shaking. Remove any bubbles. • 21. If necessary stop reaction with the addition of 100 μl 0.2 M HCl per well. • 22. Read assay on Dynatech MR7000 ELISA reader: test filter: 410 nM, reference filter: 630 nM.

[1] = molecular target: Myc-GyrB-FGFR fusion protein (Homo sapiens, UniProt P11362); assay: Biochemical FGFR assay (ELISA); details: read-out: bio fgfR1 IC50
[2] = molecular target: T3, chimeric receptor containing the EGFR extracellular domain and intracellular HER2 kinase domain (Homo sapiens, UniProt P04626); assay: EGF Receptor-HER2 chimeric receptor assay in whole cells (ELISA); type: cell-based; details: read-out: HER-2 kinase IC50
T3 construct: fused on or other part: EGFR ectodomain + HER2 intracellular part, ATP-site indolinones: HER2's kinase
Protocol: EGF Receptor-HER2 Chimeric Receptor Assay In Whole Cells.
HER2 kinase activity in whole EGFR-NIH3T3 cells are measured as described below:
• a. […] 05-101 (UBI) (a monoclonal antibody recognizing an EGFR extracellular domain). • c. Anti-phosphotyrosine antibody (anti-Ptyr) (polyclonal) (see, Fendley, et al., supra). • d. Detection antibody: Goat anti-rabbit IgG horseradish peroxidase conjugate, TAGO, Inc., Burlingame, Calif. • e. TBST buffer:
• h. Stock reagents of:
Pre-coat ELISA Plate • 1. […] Coated plates are good for up to 10 days when stored at 4° C. • 2. On day of use, remove coating buffer and replace with 100 μl blocking buffer (5% Carnation Instant Non-Fat Dry Milk in PBS). Incubate the plate, shaking, at room temperature (about 23° C. to 25° C.) for 30 minutes. Just prior to use, remove blocking buffer and wash plate 4 times with TBST buffer.
Seeding Cells • 1. An NIH3T3 cell line overexpressing a chimeric receptor containing the EGFR extracellular domain and intracellular HER2 kinase domain can be used for this assay. • 2. Choose dishes having 80-90% confluence for the experiment. Trypsinize cells and stop reaction by adding 10% fetal bovine serum. Suspend cells in DMEM medium (10% CS DMEM medium) and centrifuge once at 1500 rpm, at room temperature for 5 minutes. • 3. Resuspend cells in seeding medium (DMEM, 0.5% bovine serum), and count the cells using trypan blue. Viability above 90% is acceptable. Seed cells in DMEM medium (0.5% bovine serum) at a density of 10,000 cells per well, 100 μl per well, in a 96 well microtiter plate. Incubate seeded cells in 5% CO2. at 37° C. for about 40 hours.
Assay Procedures • 1. Check seeded cells for contamination using an inverted microscope. Dilute drug stock (10 mg/ml in DMSO) 1:10 in DMEM medium, then transfer 5 μl to a […] well for a final drug dilution of 1:200 and a final DMSO concentration of 1%. Control wells receive DMSO alone. Incubate in 5% CO2 at 37° C. for two hours. • 2. Prepare EGF ligand: dilute stock EGF in DMEM so that upon transfer of 10 μl dilute EGF (1:12 dilution), 100 nM final concentration is attained. • 3. Prepare fresh HNTG* sufficient for 100 μl per well, and place on ice.
• 4. After 120 minutes incubation with drug, add prepared […] ligand to cells, 10 μl per well, to a final concentration of 100 nM. Control wells receive DMEM alone. Incubate with shaking, at room temperature, for 5 minutes. • 5. Remove drug, EGF, and DMEM. Wash cells twice with PBS. Transfer HNTG* to cells, 100 μl per well. Place on ice for 5 minutes. Meanwhile, remove blocking buffer from other ELISA plate and wash with TBST as described above. • 6. With a pipette tip securely fitted to a micropipettor, scrape cells from plate and homogenize cell material by repeatedly aspirating and dispensing the HNTG* lysis buffer. Transfer lysate to a coated, blocked, and washed ELISA plate. Incubate shaking at room temperature for one hour. • 7. Remove lysate and wash 4 times with TBST. Transfer freshly diluted anti-Ptyr antibody to ELISA plate at 100 μl per well. Incubate shaking at room temperature for 30 minutes in the presence of the anti-Ptyr antiserum (1:3000 dilution in TBST). • 8. Remove the anti-Ptyr antibody and wash 4 times with TBST. Transfer the freshly diluted TAGO anti-rabbit IgG antibody to the ELISA plate at 100 μl per well. Incubate shaking at room temperature for 30 minutes (anti-rabbit IgG antibody: 1:3000 dilution in TBST). • 9. Remove TAGO detection antibody and wash 4 times with TBST. Transfer freshly prepared ABTS/H2O2 solution to ELISA plate, 100 μl per well. Incubate shaking at room temperature for 20 minutes. (ABTS/H2O2 solution: 1.0 μl 30% H2O2 in 10 ml ABTS stock). • 10. Stop reaction by adding 50 μl 5N H2SO4 (optional), and determine O.D. at 410 nm. • 11. The maximal phosphotyrosine signal is determined by subtracting the value of the negative controls from the positive controls. […]

T3 sequence (P04626 720-1255 limits assumed, change not shown): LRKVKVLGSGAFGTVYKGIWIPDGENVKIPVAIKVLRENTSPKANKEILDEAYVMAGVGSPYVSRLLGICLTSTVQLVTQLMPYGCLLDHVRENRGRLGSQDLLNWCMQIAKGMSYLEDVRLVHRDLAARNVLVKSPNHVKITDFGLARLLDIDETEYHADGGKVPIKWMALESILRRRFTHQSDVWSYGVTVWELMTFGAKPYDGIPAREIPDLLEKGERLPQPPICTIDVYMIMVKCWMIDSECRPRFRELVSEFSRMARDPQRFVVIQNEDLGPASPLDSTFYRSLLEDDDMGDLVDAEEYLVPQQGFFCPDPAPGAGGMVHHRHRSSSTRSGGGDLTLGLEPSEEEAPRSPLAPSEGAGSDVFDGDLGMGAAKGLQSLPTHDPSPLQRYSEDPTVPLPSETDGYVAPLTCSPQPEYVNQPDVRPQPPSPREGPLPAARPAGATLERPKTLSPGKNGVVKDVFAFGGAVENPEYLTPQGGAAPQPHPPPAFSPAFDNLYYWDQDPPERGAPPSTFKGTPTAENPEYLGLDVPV
T1 sequence (P35968 786-1356 limits assumed): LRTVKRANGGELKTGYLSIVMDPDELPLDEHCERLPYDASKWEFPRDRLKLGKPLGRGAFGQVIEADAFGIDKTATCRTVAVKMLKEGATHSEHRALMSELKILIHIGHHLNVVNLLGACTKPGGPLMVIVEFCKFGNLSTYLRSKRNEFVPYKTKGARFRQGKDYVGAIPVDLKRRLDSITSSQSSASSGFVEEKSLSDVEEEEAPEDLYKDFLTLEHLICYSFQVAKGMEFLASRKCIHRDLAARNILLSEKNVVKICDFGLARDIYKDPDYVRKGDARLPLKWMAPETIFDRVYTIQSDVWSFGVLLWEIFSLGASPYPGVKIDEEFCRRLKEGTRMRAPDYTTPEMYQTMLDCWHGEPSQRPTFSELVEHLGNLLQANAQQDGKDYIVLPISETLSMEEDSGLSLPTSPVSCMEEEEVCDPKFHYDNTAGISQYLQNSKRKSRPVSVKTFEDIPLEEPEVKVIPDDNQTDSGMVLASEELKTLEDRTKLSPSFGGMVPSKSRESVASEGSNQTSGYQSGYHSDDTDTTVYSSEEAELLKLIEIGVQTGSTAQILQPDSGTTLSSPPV
Myc-GyrB-FGFR fusion protein, sequence (P11362 478-767 limits assumed): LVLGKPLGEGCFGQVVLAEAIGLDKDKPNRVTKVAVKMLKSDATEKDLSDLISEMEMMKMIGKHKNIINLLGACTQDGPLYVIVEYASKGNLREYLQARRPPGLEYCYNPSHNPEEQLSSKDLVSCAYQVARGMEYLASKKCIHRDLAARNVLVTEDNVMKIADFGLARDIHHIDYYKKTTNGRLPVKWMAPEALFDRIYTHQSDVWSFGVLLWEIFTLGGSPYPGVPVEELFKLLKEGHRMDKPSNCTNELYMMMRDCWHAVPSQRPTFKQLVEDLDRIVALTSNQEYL
T2 sequence (P09619 33-1106): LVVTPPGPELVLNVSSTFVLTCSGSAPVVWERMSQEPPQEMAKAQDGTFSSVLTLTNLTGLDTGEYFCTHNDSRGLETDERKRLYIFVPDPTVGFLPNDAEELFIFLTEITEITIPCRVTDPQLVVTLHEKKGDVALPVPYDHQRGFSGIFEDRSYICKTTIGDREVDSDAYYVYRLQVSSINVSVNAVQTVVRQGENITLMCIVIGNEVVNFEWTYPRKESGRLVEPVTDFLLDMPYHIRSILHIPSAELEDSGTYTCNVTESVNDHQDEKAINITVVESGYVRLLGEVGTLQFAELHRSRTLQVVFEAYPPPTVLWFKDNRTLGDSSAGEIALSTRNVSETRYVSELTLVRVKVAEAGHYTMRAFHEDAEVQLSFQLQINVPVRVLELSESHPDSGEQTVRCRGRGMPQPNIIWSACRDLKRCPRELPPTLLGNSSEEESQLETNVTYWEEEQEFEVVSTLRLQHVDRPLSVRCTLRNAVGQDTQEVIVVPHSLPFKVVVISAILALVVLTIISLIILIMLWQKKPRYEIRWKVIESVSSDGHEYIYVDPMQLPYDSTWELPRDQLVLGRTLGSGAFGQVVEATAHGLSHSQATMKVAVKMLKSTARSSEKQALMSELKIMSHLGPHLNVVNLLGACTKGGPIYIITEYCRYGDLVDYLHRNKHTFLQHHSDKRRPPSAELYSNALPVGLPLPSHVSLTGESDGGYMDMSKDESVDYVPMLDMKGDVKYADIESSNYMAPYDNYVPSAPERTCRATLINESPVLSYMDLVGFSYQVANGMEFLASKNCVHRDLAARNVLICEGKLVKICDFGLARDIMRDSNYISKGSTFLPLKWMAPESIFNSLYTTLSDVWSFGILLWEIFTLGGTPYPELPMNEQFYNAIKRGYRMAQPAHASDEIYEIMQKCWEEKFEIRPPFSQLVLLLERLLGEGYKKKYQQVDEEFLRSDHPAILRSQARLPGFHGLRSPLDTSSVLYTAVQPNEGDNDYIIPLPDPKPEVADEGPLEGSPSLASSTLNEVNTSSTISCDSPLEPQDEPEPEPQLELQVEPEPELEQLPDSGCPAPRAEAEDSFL

Row | SMILES | IC50 (flkGST) [µM] | IC50 (PDGFR-β) [µM] | IC50 [1] [µM] | IC50 [2] [µM]
1 | CCOC(=O)c1[nH]c(/C=C2\C(=O)Nc3ccccc32)c(CCC(=O)O)c1C [Example 117, 4-(2-Carboxyethyl)-3-methyl-5-(2-oxo-1,2-dihydroindol-3-ylidenemethyl)-1H-pyrrole-2-carboxylic acid ethyl ester] | 13.5 | > 100 | > 20 | 
2 | CCOC(=O)c1c(C)[nH]c(/C=C2\C(=O)Nc3ccc(S(=O)(=O)NC)cc32)c1CCCN1CCCC1 [Example 126, 2-Methyl-5-(5-methylsulfamoyl-2-oxo-1,2-dihydroindol-3-ylidenemethyl)-4-(3-pyrrolidin-1-ylpropyl)-1H-pyrrole-3-carboxylic acid ethyl ester] | 14.8 | 63.3 |  | 
3 | CCOC(=O)c1c(C)[nH]c(/C=C2\C(=O)Nc3ccc(S(N)(=O)=O)cc32)c1CCCN1CCCC1 [Example 130, 2-Methyl-5-(2-oxo-5-sulfamoyl-1,2-dihydroindol-3-ylidenemethyl)-4-(3-pyrrolidin-1-ylpropyl)-1H-pyrrole-3-carboxylic acid ethyl ester] | 12.9 | 2.32 |  | 
4 | CCOC(=O)c1c(C)[nH]c(/C=C2\C(=O)Nc3ccc(S(N)(=O)=O)cc32)c1CCCN(C)C [Example 133, 4-(3-Dimethylaminopropyl)-2-methyl-5-(2-oxo-5-sulfamoyl-1,2-dihydroindol-3-ylidenemethyl)-1H-pyrrole-3-carboxylic acid ethyl ester] | 8.18 | 2.69 |  | 
5 | NS(=O)(=O)c1ccc2c(c1)/C(=C/c1cc3ccccc3[nH]1)C(=O)N2 [Example 159, 3-(1H-Indol-2-ylmethylene)-2-oxo-2,3-dihydro-1H-indole-5-sulfonic acid amide] | 2.87 | 74.1 | > 20 | 
6 | O=C1Nc2cc(Cl)ccc2/C1=C/c1cc2ccccc2[nH]1 [Example 162, 6-Chloro-3-(1H-indol-2-ylmethylene)-1,3-dihydro-indol-2-one] |  | 8.02 | > 20 | 
7 | O=C1Nc2ccccc2/C1=C/c1cc2ccccc2[nH]1 [Example 163, 3-(1H-Indol-2-ylmethylene)-1,3-dihydro-indol-2-one] |  | > 100 | > 20 | 
8 | O=C1Nc2ccc(Cl)cc2/C1=C/c1cc2ccccc2[nH]1 [Example 164, 5-Chloro-3-(1H-indol-2-ylmethylene)-1,3-dihydro-indol-2-one] |  | > 100 | > 20 | > 100
9 | Cc1c(/C=C2\C(=O)Nc3ccccc32)[nH]c2ccccc12 [Example 167, 3-(3-Methyl-1H-indol-2-ylmethylene)-1,3-dihydro-indol-2-one] |  | > 100 | > 20 | 

Second part, the molecule after the results:

Row | IC50 (flkGST) [µM] | IC50 (PDGFR-β) [µM] | IC50 [1] [µM] | IC50 [2] [µM] | SMILES
10 | 0.71 | 0.65 |  |  | COc1ccc2c(c1)/C(=C/c1[nH]c3ccccc3c1CCCN(C)C)C(=O)N2 [Example 151, 3-[3-(3-Dimethylaminopropyl)-1H-indol-2-ylmethylene]-5-methoxy-1,3-dihydroindol-2-one]
11 |  |  | > 20 | > 100 | Cc1ccc2c(c1)/C(=C/c1[nH]c3ccccc3c1C)C(=O)N2 [Example 152, 5-Methyl-3-(3-methyl-1H-indol-2-ylmethylene)-1,3-dihydro-indol-2-one]
12 |  | > 100 | > 20 | > 100 | Cc1c(/C=C2\C(=O)Nc3ccc(S(N)(=O)=O)cc32)[nH]c2ccccc12 [Example 153, 3-(3-Methyl-1H-indol-2-ylmethylene)-2-oxo-2,3-dihydro-1H-indole-5-sulfonic acid amide]
13 |  | > 100 | > 20 | > 100 | CC(=O)c1ccc2c(c1)C(=Cc1[nH]c3ccccc3c1C)C(=O)N2 [Example 157, 5-Acetyl-3-(3-methyl-1H-indol-2-ylmethylene)-1,3-dihydroindol-2-one]
14 |  | > 100 | > 20 |  | Cc1c(/C=C2\C(=O)Nc3ccc(Cl)cc32)[nH]c2ccccc12 [Example 168, 5-Chloro-3-(3-methyl-1H-indol-2-ylmethylene)-1,3-dihydro-indol-2-one]
